Reference: PMC2965864 (British Journal of Cancer, 2010)
Like-named read-outs stand apart in the source and are kept apart here. One block for each molecule: values may come before it.

Experiments:
[1] = Plasma pharmacokinetics of irinotecan and SN-38 in patients; details: for Tlast: median; for Tmax: median (range), n=18–20 paired
Method: (§1) In cycle 1, sunitinib administration started on day 2. Both agents were evaluated in combination on cycle 2 day 1; samples were drawn before drug administration and at 1, 1.5, 2, 4, 6, 8, 10, and 24 hours post-dose.
(§2) Pharmacokinetic parameter values were calculated for each subject by noncompartmental analysis of concentration–time data using WinNonlin version 4.1 (http://pharmacy.ucsf.edu/irc/pdfs/wul_users_guide.pdf). […] Summary descriptives of pharmacokinetic values were presented only for paired observations with respect to each analyte. In the case where the dose for one of the paired observations was different from the other observation, dose correction to the intended dose was performed (correction factor: intended dose/actual dose). Dose correction to the MTD was performed. Individual patient trough plasma concentrations were summarised per cycle and study day. All concentrations that were below the limits of quantitation (BLQ) were set to zero before computation of descriptive statistics (BLQ values were excluded from the calculations of geometric means and the associated 95% confidence intervals).
(§3) Standard plasma pharmacokinetic parameters were used including the maximum plasma concentration (Cmax), time to Cmax (Tmax), area under the plasma concentration–time curve to the time of the last measurable concentration (AUC0–last) or infinity (AUC0–∞), clearance, and terminal elimination half-life (t1/2).

[2] = Plasma pharmacokinetics of sunitinib, SU012662 and total drug in patients; details: human, in vivo
Method: Pharmacokinetic analysis was carried out in a central laboratory, and pharmacokinetic parameter values were estimated using noncompartmental methods. Human potassium EDTA plasma pharmacokinetic samples were analysed for sunitinib and SU012662 and total drug (sunitinib plus SU012662) concentrations at BASi (West Lafayette, IN, USA) with the use of a validated, sensitive, and specific liquid chromatographic-tandem mass spectrometric method.
as §1, §2, §3

[3] = for Patients requiring dose delay / Patients with dose reduction: irinotecan; for Patients requiring dose delay: cycles 1 and 2; for Patients with dose reduction: first two cycles
Method: Seven days before the start of cycle 1, a single day's dose of sunitinib was administered to allow for the collection of samples for pharmacokinetic analysis.
In addition, prophylactic use of hematopoietic growth factors to support neutrophil or platelet counts was not recommended in cycle 1, but could be used in subsequent cycles.
Patients underwent regular physical examinations (usually on day 1 of each treatment cycle), laboratory tests (blood, usually on days 1 and 15 of each cycle, and urinalysis) and 12-lead electrocardiogram (at screening, at steady state level of sunitinib on cycle 2 day 1, and as clinically indicated in subsequent cycles). […] Response Evaluation Criteria for Solid Tumors version 1.0 ([Therasse et al 2000]) was used, requiring repeat imaging studies ⩾4 weeks after the initial documentation of response.

[4] = C2D1/C1D1 (sunitinib+irinotecan relative to irinotecan alone), both cohorts combined

SMILES: CCc1c2c(nc3ccc(O)cc13)-c1cc3c(c(=O)n1C2)COC(=O)[C@]3(O)CC [SN-38]
Geometric mean ratio of AUC0–last [1, 4]: 1.20 | Geometric mean ratio of Cmax [1, 4]: 1.13 | AUC0–last ([1]; Irinotecan alone C1D1, mean (CV%)): 0.31 (61.7) μg h ml^−1 | Cmax ([1]; Irinotecan alone C1D1, mean (CV%), dose corrected to 250 mg m^−2): 0.03 (51.4) μg ml^−1 | Tlast ([1]; Irinotecan alone C1D1): 24.0 h | Tmax ([1]; Irinotecan alone C1D1): 1.1 (1.0–4.2) h | AUC0–last ([1]; Sunitinib+irinotecan C2D1, mean (CV%)): 0.36 (52.8) μg h ml^−1 | Cmax ([1]; Sunitinib+irinotecan C2D1, mean (CV%), dose corrected to 250 mg m^−2): 0.04 (50.0) μg ml^−1 | Tlast ([1]; Sunitinib+irinotecan C2D1): 24.0 h | Tmax ([1]; Sunitinib+irinotecan C2D1): 1.5 (0.9–4.1) h

AUC0–last [2]: 53.2 (30.9) ng h ml^−1 | Cmax [2]: 3.6 (32.5) ng ml^−1 | Tlast [2]: 24.0 h | AUC0–last ([2]; 25 mg): 38.6 (54.4) ng h ml^−1 | Cmax ([2]; 25 mg): 2.4 (51.4) ng ml^−1
SMILES: CCNCCNC(=O)c1c(C)[nH]c(/C=C2\C(=O)Nc3ccc(F)cc32)c1C [SU012662]

SMILES: CCc1c2c(nc3ccc(OC(=O)N4CCC(N5CCCCC5)CC4)cc13)-c1cc3c(c(=O)n1C2)COC(=O)[C@]3(O)CC [Irinotecan, irinotecan]
Tlast ([1]; Irinotecan alone C1D1): 24.0 h | Tlast ([1]; Sunitinib+irinotecan C2D1): 24.0 h | AUC0–last ([1]; human, in vivo): 16.9 (33.3) μg h ml^−1 | AUC0–∞ ([1]; human, in vivo): 18.1 (34.0) μg h ml^−1 | Cmax ([1]; human, in vivo, 250 mg): 2.9 µg/mL | AUC(0-t) ([1]; human, in vivo, AUC0–last): 14.9 µg·h/mL | AUC(0-inf) ([1]; human, in vivo, AUC0–∞): 15.9 µg·h/mL | Maximum tolerated dose (MTD) ([3]; irinotecan day 1 of 21-day cycle, with sunitinib 25 mg per day days 1–14): 250 mg m^−2 | Patients requiring dose delay ([3]; cohort 1): four | Patients with dose reduction ([3]; cohort 1): six | Patients requiring dose delay ([3]; cohort 2): one | Patients with dose reduction ([3]; cohort 2): one

SMILES: CCN(CC)CCNC(=O)c1c(C)[nH]c(/C=C2\C(=O)Nc3ccc(F)cc32)c1C [Sunitinib, sunitinib]
AUC(0-t) [2]: 0.226 µg·h/mL | Cmax [2]: 0.013 µg/mL | Tlast [2]: 24.0 h | AUC(0-t) ([2]; 25 mg): 0.267 µg·h/mL | Cmax ([2]; 25 mg): 0.0163 µg/mL | Maximum tolerated dose (MTD) ([3]; sunitinib days 1–14 of 21-day cycle, with irinotecan 250 mg m^−2 day 1): 25 mg per day
